Usually IC50 stands for the concentration that gives 50% inhibition.

Experiment [1] concerns pCHK1 (S345) in Colo320 DM cells. Description: CHK1 cellular activity (phospho-CHK1 AlphaLisa). Conditions: compound overnight (approximately 16 hours). The experiment is classed as cell-based, human. The procedure:
Phospho-CHK1 cellular activity was measured as a marker of replication stress which is a consequence of RNR inhibition.
Colo320 DM cells (ATCC #CCL-220, derived from human colorectal adenocarcinoma, Dukes' type C) were seeded on a 96-well cell culture treated assay plate at a density of 50,000 cells/well in 200 μL of RPMI-1640 media supplemented with 10% Fetal Bovine Serum and incubated at 37 degrees Celsius overnight. The following day, test compound dilutions were added directly to the plated cells by a Tecan digital dispenser to a final DMSO concentration of <0.5% and incubated at 37 degrees Celsius overnight (approximately 16 hours). The following day all culture media is removed from the cells. 75 μL of 1× AlphaLisa lysis buffer is added to each well and plates are agitated on a shaker for 30 minutes at room temperature. The lysis of cells and detection of pCHK1 (S345) are performed with reagents contained within the AlphaLisa Sure Fire assay kit (Perkin Elmer #ALSU-PCHK1-A) according to the manufacturer's instructions. 10 μL of each lysate was then transferred to a white, 384-well assay plate (Perkin Elmer #6008280). 5 μL of Acceptor mix was then added to each well of lysate in the white, 384-well assay plate and incubated in the dark at room temperature for 60 minutes. 5 μL of Donor mix was then added to each well of the white, 384-well assay plate in subdued light and incubated at room temperature for 60 minutes. Plates are read on an Alpha Technology-compatible plate reader using standard AlphaLisa settings.
(In Alpha technology, singlet oxygen from a donor bead excites a nearby acceptor bead.)

In the next experiment the target is RNR (RNR1:RNR2) (Homo sapiens (Human), UniProt P23921+P31350). Description: RNR enzyme activity, rapid-fire mass spectrometry (RFMS) assay. Conditions: [RNR] 50 nM, 1:1 RNR1:RNR2, [CDP] 5 μM, [ATP] 1 mM, 37° C., 45 min. The experiment is classed as biochemical. On the procedure: A rapid-fire mass spectrometry (RFMS) assay was used to assess RNR enzyme activity using a 384 well plate and a robotic platform.
The plate layout included two validated reference compounds (Triapine (3-AP) and Hydroxyurea (HU)): • A dose response in duplicate; top concentration: 5 μM (3-AP) and 250 μM (HU), semi-log • dilutions. • Spike wells in triplicate randomly spotted at four concentrations: • 250 μM, 100 μM, 30 μM and 2 μM for HU • 5 μM, 2 μM, 0.6 μM and 0.04 μM for 3-AP
First, the multidrop pipes were saturated for 30 minutes with enzymatic solution. Then 30 μL of Stop solution was distributed in column 24. Next, 15 μL of enzyme was distributed in column 1 to 24. Next, a pre-incubation step of 15 minutes at room temperature occurred, followed by distribution of 15 μL of substrate solution (column 1 to 24). Next, the plate was incubated for 45 minutes at 37° C. 30 μL of Stop solution was distributed to columns 1 to 23.
The final parameters for the enzyme reactions were: • Incubation: 37° C., 45 min • [CDP]: 5 μM; [ATP]: 1 mM; [NADPH]: No • [RNR]final: 50 nM with 1:1 (RNR1:RNR2) ratio • Final volume: 30 μL • Stop solution: 6% HCOOH containing 2 μM of 15
The compounds were screened at concentrations from 10 nM to 30 μM.

RNR (RNR1:RNR2), sequence (P23921 whole entry): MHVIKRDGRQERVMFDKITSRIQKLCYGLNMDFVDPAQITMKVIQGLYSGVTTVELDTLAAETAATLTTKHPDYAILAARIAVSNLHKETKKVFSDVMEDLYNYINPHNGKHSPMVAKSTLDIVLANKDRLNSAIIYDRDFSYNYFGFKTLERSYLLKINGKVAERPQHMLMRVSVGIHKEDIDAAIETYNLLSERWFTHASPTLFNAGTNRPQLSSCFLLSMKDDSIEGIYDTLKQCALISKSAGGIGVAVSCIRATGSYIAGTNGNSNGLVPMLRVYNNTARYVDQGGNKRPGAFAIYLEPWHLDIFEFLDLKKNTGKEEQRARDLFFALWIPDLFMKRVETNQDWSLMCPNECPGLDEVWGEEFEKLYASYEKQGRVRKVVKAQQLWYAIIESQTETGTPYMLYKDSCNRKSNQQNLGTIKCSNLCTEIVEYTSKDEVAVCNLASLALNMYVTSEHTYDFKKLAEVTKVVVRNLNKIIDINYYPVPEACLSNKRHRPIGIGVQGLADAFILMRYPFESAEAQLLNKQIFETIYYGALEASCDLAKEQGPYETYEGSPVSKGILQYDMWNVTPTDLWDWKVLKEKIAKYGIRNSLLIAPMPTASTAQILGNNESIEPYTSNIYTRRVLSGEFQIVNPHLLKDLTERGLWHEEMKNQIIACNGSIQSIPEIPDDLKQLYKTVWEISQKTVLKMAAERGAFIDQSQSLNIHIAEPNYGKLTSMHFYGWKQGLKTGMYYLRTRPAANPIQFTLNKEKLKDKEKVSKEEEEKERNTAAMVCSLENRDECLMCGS
RNR (RNR1:RNR2), sequence (P31350 whole entry): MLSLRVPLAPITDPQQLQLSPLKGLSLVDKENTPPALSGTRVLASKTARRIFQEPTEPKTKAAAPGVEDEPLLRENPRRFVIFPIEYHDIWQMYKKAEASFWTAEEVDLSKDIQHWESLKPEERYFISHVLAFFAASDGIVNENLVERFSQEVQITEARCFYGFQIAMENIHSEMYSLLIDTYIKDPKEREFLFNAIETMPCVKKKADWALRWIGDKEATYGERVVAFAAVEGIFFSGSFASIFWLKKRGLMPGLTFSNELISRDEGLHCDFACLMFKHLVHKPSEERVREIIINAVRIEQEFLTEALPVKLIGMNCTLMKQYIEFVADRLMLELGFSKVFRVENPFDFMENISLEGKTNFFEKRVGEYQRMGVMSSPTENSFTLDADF

For the compound `Cc1ccc(F)c([C@@H](C)[C@H](NS(=O)(=O)c2cc(C(C)(C)O)c(Cl)cc2C(N)=O)c2nn[nH]n2)c1C` (racemic) [Example 13, rac-5-chloro-2-(N-((1R,2S)-2-(6-fluoro-2,3-dimethylphenyl)-1-(2H-tetrazol-5-yl)propyl)sulfamoyl)-4-(2-hydroxypropan-2-yl)benzamide], the IC50 was 50 to 100 µM in experiment [1] (Homo sapiens, COLO 320DM, 16 h) and not above 0.1 µM at RNR (RNR1:RNR2).
As to `COC(=O)Cc1cc(Cl)ccc1S(=O)(=O)N[C@H](c1nn[nH]n1)[C@H](C)c1c(F)ccc(C)c1C` (racemic) [Example 14, rac-methyl 2-(5-chloro-2-(N-((1R,2S)-2-(6-fluoro-2,3-dimethylphenyl)-1-(2H-tetrazol-5-yl)propyl)sulfamoyl)phenyl)acetate], the half-inhibitory concentration (IC50) lay within 10 to 30 µM in experiment [1] (Homo sapiens, COLO 320DM, 16 h) and 0.1 to 1 µM against RNR (RNR1:RNR2).
With `Cc1ccc(F)c([C@@H](C)[C@H](NS(=O)(=O)c2ncc(Br)cc2C(N)=O)c2nn[nH]n2)c1C` (racemic) [Example 15, rac-5-bromo-2-(N-((1R,2S)-2-(6-fluoro-2,3-dimethylphenyl)-1-(2H-tetrazol-5-yl)propyl)sulfamoyl)nicotinamide], the concentration for half-maximal inhibition (IC50) in experiment [1] (Homo sapiens, COLO 320DM, 16 h) is 50 to 100 µM; against RNR (RNR1:RNR2) it was not above 0.1 µM.
Turning to `COc1c(S(=O)(=O)N[C@H](c2nn[nH]n2)[C@H](C)c2c(F)ccc(C)c2C)ccc(Cl)c1[C@H](C)O` (racemic) [Example 16, rac-4-chloro-N-((1R,2S)-2-(6-fluoro-2,3-dimethyphenyl)-1-(2H-tetrazol-5-yl)propyl)-3-((R)-1-hydroxyethyl)-2-methoxybenzenesulfonamide], the IC50 is 10 to 30 µM in experiment [1] (Homo sapiens, COLO 320DM, 16 h) and not above 0.1 µM at RNR (RNR1:RNR2).
On the same counts, the results for `COc1c(S(=O)(=O)N[C@H](c2nn[nH]n2)[C@H](C)c2c(F)ccc(C)c2C)ccc(Cl)c1[C@@H](C)O` (racemic) [Example 17, rac-4-chloro-N-((1R,2S)-2-(6-fluoro-2,3-dimethylphenyl)-1-(2H-tetrazol-5-yl)propyl)-3-((S)-1-hydroxyethyl)-2-methoxybenzenesulfonamide] are 10 to 30 µM and not above 0.1 µM.
Regarding `Cc1ccc(F)c([C@@H](C)[C@H](NS(=O)(=O)c2ccc(C#N)cc2OC(F)F)c2nn[nH]n2)c1C` (racemic) [Example 69, rac-4-cyano-2-(difluoromethxoy)-N-((1R,2S)-2-(6-fluoro-2,3-dimethylphenyl)-1-(2H-tetrazol-5-yl)propyl)benzenesulfonamide], the IC50 lay within 50 to 100 µM in experiment [1] (Homo sapiens, COLO 320DM, 16 h) and 0.1 to 1 µM against RNR (RNR1:RNR2).
On the same counts, the results for `COc1c(S(=O)(=O)N[C@H](c2nn[nH]n2)[C@H](C)c2c(F)ccc(C)c2C)ccc(C#N)c1F` (racemic) [Example 70, rac-4-cyano-3-fluoro-N-((1R,2S)-2-(6-fluoro-2,3-dimethylphenyl)-1-(2H-tetrazol-5-yl)propyl)-2-methoxybenzenesulfonamide] are 50 to 100 µM and 0.1 to 1 µM.
In the case of `Cc1ccc(F)c([C@@H](C)[C@H](NS(=O)(=O)c2ccc(Cl)cc2N(C)C)c2nn[nH]n2)c1C` (racemic) [Example 71, rac-4-chloro-2-(dimethylamino)-N-((1R,2S)-2-(6-fluoro-2,3-dimethylphenyl)-1-(2H-tetrazol-5-yl)propyl)benzenesulfonamide], the IC50 in experiment [1] (Homo sapiens, COLO 320DM, 16 h) is not above 10 µM; at RNR (RNR1:RNR2), not above 0.1 µM.
On the same counts, the results for `Cc1ccc(F)c([C@@H](C)[C@H](NS(=O)(=O)c2ccc(Cl)c3c2OCC[C@]3(C)O)c2nn[nH]n2)c1C` (single isomer, unassigned) [Example 3] are 10 to 30 µM and not above 0.1 µM.
As to `Cc1ccc(F)c([C@@H](C)[C@H](NS(=O)(=O)c2ccc(Cl)c3c2OCC[C@@]3(C)O)c2nn[nH]n2)c1C` (single isomer, unassigned) [Example 4], the concentration for half-maximal inhibition (IC50) in experiment [1] was 10 to 30 µM; on RNR (RNR1:RNR2) it was not above 0.1 µM.
Take `COc1cc(Cl)ccc1S(=O)(=O)N[C@H](c1nn[nH]n1)[C@H](C)c1c(F)ccc(C)c1C` [Example 1, 4-chloro-N-[(1S,2R)-2-(6-fluoro-2,3-dimethylphenyl)-1-(2H-1,2,3,4-tetrazol-5-yl)propyl]-2-methoxybenzene-1-sulfonamide]: the IC50 was not above 10 µM in experiment [1] (Homo sapiens, COLO 320DM, 16 h) and not above 0.1 µM at RNR (RNR1:RNR2).
For `Cc1ccc(F)c([C@@H](C)[C@H](NS(=O)(=O)c2ccc(Cl)cc2C(N)=O)c2nn[nH]n2)c1C` [Example 2, 5-chloro-2-(N-((1S,2R)-2-(6-fluoro-2,3-dimethylphenyl)-1-(2H-tetrazol-5-yl)propyl)sulfamoyl)benzamide], the IC50 was 50 to 100 µM in experiment [1] (Homo sapiens, COLO 320DM, 16 h) and not above 0.1 µM against RNR (RNR1:RNR2).
Compound `Cc1ccc(F)c([C@@H](C)[C@H](NS(=O)(=O)c2ccc(Cl)cc2NC(C)C)c2nn[nH]n2)c1C` [Example 6, 4-chloro-N-((1S,2R)-2-(6-fluoro-2,3-dimethylphenyl)-1-(2H-tetrazol-5-yl)propyl)-2-(isopropylamino)benzenesulfonamide] gave an IC50 in experiment [1] (Homo sapiens, COLO 320DM, 16 h) of 50 to 100 µM.
Take `Cc1ccc(F)c([C@H](C)[C@H](c2nn[nH]n2)c2c(S(N)(=O)=O)ccc(Cl)c2C#N)c1C` [Example 51, 4-chloro-3-cyano-2-((1S,2R)-2-(6-fluoro-2,3-dimethylphenyl)-1-(2H-tetrazol-5-yl)propyl)benzenesulfonamide]: on RNR (RNR1:RNR2), the IC50 is 0.1 to 1 µM.
Same read-out and setting: with `Cc1ccc(F)c(S(=O)(=O)N[C@H](c2nn[nH]n2)[C@H](C)c2c(F)ccc(C)c2C)c1` [Example 52, 2-fluoro-N-((1S,2R)-2-(6-fluoro-2,3-dimethylpehnyl)-1-(2H-tetrazol-5-yl)propyl)-5-methylbenzenesulfonamide] the figure was 1 to 5 µM.
Consider `C=Cc1cc(Cl)ccc1S(=O)(=O)N[C@H](c1nn[nH]n1)[C@H](C)c1c(F)ccc(C)c1C` [Example 63, 4-chloro-N-((1S,2R)-2-(6-fluoro-2,3-dimethylphenyl)-1-(2H-tetrazol-5-yl)propyl)-2-vinylbenzenesulfonamide], for which, in experiment [1] (Homo sapiens, COLO 320DM, 16 h), the IC50 was in the range of 30 to 50 µM.
`Cc1ccc(F)c([C@@H](C)[C@H](NS(=O)(=O)c2ccc(Cl)cc2Br)c2nn[nH]n2)c1C` [Example 65, 2-bromo-4-chloro-N-((1S,2R)-2-(6-fluoro-2,3-dimethylphenyl)-1-(2H-tetrazol-5-yl)propyl)benzenesulfonamide] had a half-maximal inhibitory concentration (IC50) in experiment [1] (Homo sapiens, COLO 320DM, 16 h) of 10 to 30 µM.
In experiment [1] (Homo sapiens, COLO 320DM, 16 h), `Cc1ccc(F)c([C@@H](C)[C@H](NS(=O)(=O)c2ccc(Cl)c([C@@H](F)C(=O)N(C)C)c2)c2nn[nH]n2)c1C` [Example 66, (R)-2-(2-chloro-5-(N-((1S,2R)-2-(6-fluoro-2,3-dimethylphenyl)-1-(2H-tetrazol-5-yl)propyl)sulfamoyl)phenyl)-2-fluoro-N,N-dimethylacetamide] yielded an IC50 of 50 to 100 µM.
As to `Cc1ccc(F)c([C@@H](C)[C@H](NS(=O)(=O)c2ccc(Cl)c([C@H](F)C(=O)N(C)C)c2)c2nn[nH]n2)c1C` [Example 67, (S)-2-(2-chloro-5-(N-((1S,2R)-2-(6-fluoro-2,3-dimethylphenyl)-1-(2H-tetrazol-5-yl)propyl)sulfamoyl)phenyl)-2-fluoro-N,N-dimethylacetamide], in experiment [1] (Homo sapiens, COLO 320DM, 16 h), the IC50 lay within 50 to 100 µM.
Take `Cc1ccc(F)c([C@@H](C)[C@H](NS(=O)(=O)c2ccc(Cl)cc2C(=O)N(C)C)c2nn[nH]n2)c1C` [Example 68, 5-chloro-2-(N-((1S,2R)-2-(6-fluoro-2,3-dimethylphenyl)-1-(2H-tetrazol-5-yl)propyl)sulfamoyl)-N,N-dimethylbenzamide]: the IC50 in experiment [1] (Homo sapiens, COLO 320DM, 16 h) is 50 to 100 µM.

Values taken from patent publication US20240158383A1, “RIBONUCLEOTIDE REDUCTASE (RNR) INHIBITORS AND USES THEREOF” (Boundless Bio, Inc., priority 2021, published 2024).
